Data: patent US20240075050A1, “Methods and Compositions for Treating Leucine Rich Repeat Kinase 2 (LRRK2)-Associated Disorder or Condition” (University of Connecticut, priority 2022, published 2024)

Legend:
[1] = tested on: DA neurons in substantia nigra pars compacta; experiment: LPS-induced DA neurodegeneration in mice, TH-positive neurons in SNpc; assay type: in vivo, mouse; conditions: 21 days
Method: (§1) Stereotaxic intracranial injection. Three days before survival surgery, osmotic pumps (ALZET, 1004) were filled with saline, 1 mg/ml or 30 mg/ml AICAr in saline, assembled with brain infusion kits (ALZET, Brain Infusion Kit 2), and incubated in saline at 37° C. 3-month-old mice were anesthetized by isoflurane gas supplemented with 0.5 L/min oxygen. A ˜1.5 cm incision was made midline on the scalp. For mouse striatum injection, one hole was drilled at the following coordinates: anterioposterior=+0.5 mm from bregma; lateral=−2.0 mm from bregma; dorsoventral=−3.5 mm. For mouse substantia nigra pars compacta (SNpc) injection, one hole was drilled at the following coordinates: anterioposterior=−3.2 mm from bregma; lateral=−1.2 mm from bregma; dorsoventral=−4.2 mm. 1 ul LPS (5 ug) or PBS was injected at a rate of 0.2 ul/min using a Hamilton syringe with a 26-gauge blunt needle. […]
Immunohistochemistry. […] After antigen retrieval with 10 mM sodium citrate (pH 6.0) and 0.05% Tween-20 at 37° C. for 30 minutes, brain sections were washed in PBS for three times, permeabilized with 0.3% Triton X-100 in PBS, blocked with 10% goat serum in PBS, incubated with anti-tyrosine hydroxylase (TH) antibody overnight at 4° C., and then detected with Biotin-SP goat anti-rabbit IgG antibody at room temperature for 2 hours. […]
Stereological cell counting. […] Total cells were counted from 8 serial sections per animal.

LRRK2 [2] = experiment: Endogenous LRRK2 levels in SH-SY5Y cells, Western blot; assay type: cell-based, human
LRRK2 mRNA = LRRK2 mRNA levels by real-time PCR in SH-SY5Y cells; assay type: cell-based, human; conditions: 24 hours
Method: Real-Time PCR (qPCR). SH-SY5Y WT or AUF1-KO cells were treated with or without 2 mM AICAr for 24 hours, and total RNA was extracted from 3×10^5 cells of each treatment using TRIzol™ Reagent (Invitrogen) as per the manufacturer's introductions. Real-Time PCR (qPCR) assay was performed using GoTaq® 2-Step RT-PCR System (Promega) as per the manufacturer's introductions. Briefly, total cDNA was reversely transcribed from RNA pools (1.5 μg RNA in a 10 μl reaction mixture) using random primers. The qPCR reaction was run in CFX96 qPCR detection system (Bio-Rad) with 3 μl cDNA (1:20 dilution) in a 10 μl reaction mixture (Table 3), and set at 95° C. for 2 minutes followed by 40 amplification cycles of 95° C. for 15 seconds, 60° C. for 1 min with a melting curve, 95° C. for 15 seconds, 60° C. for 1 min, a ramp from 60° C. to 95° C. at an 1% rate, and 95° C. for 15 seconds. Melt curves were monitored to assess qPCR amplicons, and critical threshold (Ct) values were collected with an enclosed software. Relative gene expression was analyzed by normalization against Ct values of f-ACTIN (housekeeping gene) and then determined by comparison with expression levels of control sample using the relative expression index (2-ΔΔCt) method.

LRRK2 [3] = experiment: LRRK2 levels in mouse striatal tissue after intracranial AICAr via osmotic pumps, Western blot; assay type: in vivo
Method: Saline injections were performed as controls.
as §1, with “needle. After injection, the needle was in place for 5 minutes to minimize backflow. A subcutaneous pocket was made on the animal's back to hold the osmotic pump. The 28-gauge needle from infusion cannulae connected to the osmotic pump with a vinyl catheter tube was inserted into the same hole and then the cannulae was secured to the skull with Loctite 454 (ALZET). The wound was closed with monofilament suture.” for “needle.”

## NC(=O)c1ncn([C@@H]2O[C@H](CO)[C@@H](O)[C@H]2O)c1N [AICAr, 5-aminoimidazole-4-carboxamide riboside]
[1]; LRRK2 KO mice, AICAr 2.4 μg/day/animal into SNpc
  LPS-induced neurodegeneration: did not significantly rescue
[1]; WT mice, AICAr 2.4 μg/day/animal into SNpc by osmotic pumps
  LPS-induced DA neurodegeneration: significantly reduced
LRRK2 [2]; 1 mM, 24h-48h treatment
  LRRK2 level, time and dose course: suppressed LRRK2 level dramatically
LRRK2 [2]; SH-SY5Y AUF1-KO cells, 1 mM, 48 hours
  LRRK2 protein levels in AUF1-KO cells: largely attenuated effects
LRRK2 [2]; SH-SY5Y AUF1 KO, AUF1-GFP expressed back, 1 mM, 48 hours
  AICAr effects on LRRK2 in AUF1 KO cells with stable AUF1-GFP expression: significantly rescued AICAr effects
LRRK2 [2]; SH-SY5Y WT and AMPK KO, 1 mM, 48 hours
  effects on LRRK2 protein levels in WT versus AMPK KO cell line: similar
LRRK2 [2]; SH-SY5Y cells, 1 mM, 48 hours
  endogenous LRRK2 levels: decreased
LRRK2 [2]; SH-SY5Y, 1 mM AICAr with 0.35 μM MG132 or 5 μM CQ, 48 hours
  LRRK2 protein levels despite MG132 or CQ: still largely reduced
LRRK2 mRNA; SH-SY5Y AUF1-KO cells
  LRRK2 mRNA level in AUF1-KO cells: minimal effect
LRRK2 mRNA; SH-SY5Y WT, 2 mM, real-time PCR
  LRRK2 mRNA levels: significantly decreased
LRRK2 [3]; WT mice, LPS model, AICAr 2.4 μg/day/animal into striatum, 21 days, Western blot
  LRRK2 levels in striatal tissues: significant decrease
LRRK2 [3]; male and female mice, striatum, osmotic minipumps, 72 ug/animal/day, 1 day after injection
  LRRK2 levels in striatal tissue near the injection sites: dramatically decreased
